Data published in patent publication US20100075978A1, “SULFONAMIDE DERIVATIVES AS BRADYKININ ANTAGONISTS” (priority 2006, published 2010).
Structures can show the parent of a compound that is named as a salt. Where two headings read alike, the source gives them in different places.

Tests used:
[1] = molecular target: T1, human recombinant bradykinin B1 receptor (Homo sapiens, UniProt P46663); experiment: Human recombinant bradykinin B1 receptor binding
T1 construct: purchased Euroscreen ES-091; host or cells: CHO cells
T1 sequence (P46663 1-353): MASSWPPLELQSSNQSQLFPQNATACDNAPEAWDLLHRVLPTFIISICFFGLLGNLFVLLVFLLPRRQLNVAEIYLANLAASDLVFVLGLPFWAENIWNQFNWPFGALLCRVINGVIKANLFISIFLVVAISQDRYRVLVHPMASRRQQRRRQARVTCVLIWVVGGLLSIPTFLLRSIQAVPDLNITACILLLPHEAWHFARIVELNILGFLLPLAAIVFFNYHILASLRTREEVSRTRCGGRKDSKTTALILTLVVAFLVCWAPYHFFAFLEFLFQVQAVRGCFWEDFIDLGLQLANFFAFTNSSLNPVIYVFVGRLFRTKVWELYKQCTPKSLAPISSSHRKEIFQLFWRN
Description: 1. Human Recombinant Bradykinin B1 Receptor Binding
Binding assays were carried out on human recombinant bradykinin) receptors (expressed in CHO cells) according to the Euroscreen Technical Data Sheet (Cat.No.:ES-091). 20 μg protein/tube was incubated with [3,4-prolyl-3,4-^3H(N)]-[Des-Arg^10] Kallidin as radioligand. Non specific binding was determined in the presence of 10 μM Lys-des-Arg^9-Bradykinin. The final incubation volume was 250 μl. Samples were incubated for 15 min. at 25° C. then were rapidly vacuum filtered through GF/B filters presoaked for at least 1 h in 0.5% PEI. Radioactivity was determined by liquid scintillation spectroscopy.

[2] = molecular target: T2, recombinant human B1 receptors (Homo sapiens, UniProt P46663); experiment: Functional assay: cytosolic calcium ion concentration measured with plate reader fluorimeter in CHO-B1 cells, agonist LysDABK; format: cell-based
T2 construct: host or cells: CHO (CHO-B1)
T2 sequence (P46663 1-353): T1 sequence (P46663 1-353)
Description: Assessment of Antagonist Potency at B1 and B2 Receptors In Vitro by Measurement of Cytosolic Calcium Ion Concentration with a Plate Reader Fluorimeter in Cells Expressing Recombinant Human B1 or B2 Receptors
Chinese hamster ovary (CHO) cells stably expressing recombinant human B1 (CHO-B1, Euroscreen) or B2 (CHO-B2, Perkin-Elmer) receptors were cultured in Dulbecco's Modified Eagle's Medium (DMEM) containing 10% Fetal Calf Serum (FCS), 100 U/ml penicillin, 0.1 mg/ml streptomycin, 0.25 μg/ml amphotericin B, 1% Minimum Essential Medium Eagle (MEM), non essential amino acid solution, 600 μg/ml G418, 1% pyruvate (for the B2 cell line). Cells were kept at 37° C. in a humidified incubator in an atmosphere of 5% CO2/95% air and were passaged 1:4 three times a week. Cells were plated at 1.5-2.5×10^4 cell/well on standard 96-well microplates, measurements of cytosolic calcium ion concentration ([Ca^2+]i) were carried out 1-2 days after cell plating.
Measurements of [Ca^2+]i were carried out on CHO-B1 and CHO-B2 cells stably expressing human B1 and B2 receptors, respectively. Cells were grown in standard 96-well microplates and before the measurement were loaded with a fluorescent Ca^2+-sensitive dye, fluo-4/AM (2 μM): after removing the culture medium the dye was added to the cells (dissolved in assay buffer: 145 mM NaCl, 5 mM KCl, 2 mM MgCl2, 2 mM CaCl2, 10 mM HEPES, 20 mM D-glucose, 2 mM probenecid, 100 μl/well) and cells were incubated at 37° C. in a humidified incubator in an atmosphere of 5% CO2/95% air for 40-120 min. To stop dye loading cells were washed twice with assay buffer. After washing, various concentrations of the test compounds (diluted in extracellular medium from a DMSO stock solution, final DMSO concentration was <0.1%) or buffer were added to each well depending on the experimental setup. After incubation at 37° C. for 20-25 min. baseline and agonist-evoked changes of [Ca^2+]i were measured column by column with a plate reader fluorimeter (Fluoroskan Ascent, Labsystems). Excitation and detection of emission was carried out from the bottom of the plate. Filters used for Fluo-4: excitation filter—485 nm, emission filter—538 nm. The whole measurement process was performed at 37° C. and was controlled by custom software. Inhibitory potency of the test compounds was assessed by measuring the reduction in the agonist-evoked [Ca^2]i-elevation in the presence of different concentrations of the compounds. The agonists were LysDABK for CHO-B1, and bradykinin for CHO-B2 cells. Agonists were applied at an EC80 concentration, the EC80-values were derived from daily determined dose-response curves. Fluorescence data were expressed as ΔF/F (fluorescence change normalized to baseline). All treatments on a single plate were measured in multiple wells. Data from all wells with the same treatment were averaged and the average values were used for analysis. Inhibitory potency of a compound at a single concentration point was expressed as percent inhibition of the control agonist response. Sigmoidal concentration-inhibition curves were fitted to the data (derived from at least three independent experiments) and IC50-values were determined as the concentration that produces half of the maximal inhibition caused by the compound.

[3] = radioligand [3H]-[Des-Arg10] Kallidin, CHO cell membranes, read-out: B1 binding
[4] = CHO-B1 cells, LysDABK at EC80, [Ca2+]i, read-out: B1 func.
[5] = reference compounds, binding test, read-out: Ki
[6] = reference compounds, functional test, read-out: IC50

Structure (SMILES) | Ki [1, 3] | IC50 [2, 4] | Ki [1, 5] | IC50 [2, 6]
COc1ccc(Oc2ccccc2NS(=O)(=O)c2ccc(C(=O)NCCCN3CCC(N4CCCCC4)CC3)cc2)c(Cl)c1 [Example 147, N-(3-[1,4′]Bipiperidinyl-1′-yl-propyl)-4-[2-(2-chloro-4-methoxy-phenoxy)-phenylsulfamoyl]-benzamide] | 20 to 100 nM | 20 to 100 nM | – | –
O=C(NCCCN1CCC(N2CCCCC2)CC1)c1ccc(S(=O)(=O)Nc2ccccc2Oc2ccccc2)cc1 [Example 152, N-(3-[1,4′]Bipiperidhlyl-1′-yl-propyl)-4-(2-phenoxy-phenylsulfamoyl)-benzamide] | 20 to 100 nM | 20 to 100 nM | – | –
O=C(NCCN1CCN(c2cnccn2)CC1)c1ccc(S(=O)(=O)Nc2ccccc2Oc2ccc(Br)cc2Cl)cc1 [Example 159, 4-[2-(4-Bromo-2-chloro-phenoxy)-phenylsulfamoyl]-N-[2-(2,3,5,6-tetrahydro-[1,2′]bipyrazinyl-4-14)-ethyl]-benzamide] | 20 to 100 nM | 20 to 100 nM | – | –
O=C(NCc1ccc(CC2CCNCC2)cc1)c1ccc(S(=O)(=O)Nc2ccccc2Oc2ccc(Br)cc2Cl)cc1 [Example 166, 4-[2-(4-Bromo-2-chloro-phenoxy)-phenylsulfamoyl]-N-(4-piperidin-4-ylmethyl-benzyl)-benzamide hydrochloride] | 20 to 100 nM | 20 to 100 nM | – | –
O=C(NCCCCC1CCNCC1)c1ccc(S(=O)(=O)Nc2ccccc2Oc2ccc(Br)cc2Cl)cc1 [Example 167, 4-[2-(4-Bromo-2-chloro-phenoxy)-phenylsulfamoyl]-N-(4-piperidin-4-yl-butyl)-benzamide hydrochloride] | 20 to 100 nM | 20 to 100 nM | – | –
CN1CCN(C(=O)C2CCN(S(=O)(=O)c3ccc(NCC(c4ccccc4)c4ccccc4)c(C(=O)N4CCOCC4)c3)CC2)CC1 [NVP-SAA164, 4-{2-[(2,2-diphenyl-ethyl)-amino]-5-{4-[4-[(4-methyl-1-piperazinyl)-carbonyl]-1-piperidinyl]-sulfonyl}-benzoyl}-morfoline, reference compound] | – | – | 8 nM | 33 nM
CCCN1C(=O)[C@H](NC(=O)Nc2ccc(N3CCN(c4ccncc4)CC3)cc2)N=C(CCc2ccccc2)c2ccccc21 [compound 2, (R)—N-[2,3-dihydro-2-oxo-5-(2-phenyl-ethyl)-1-propyl-1H-1,4-benzodiazepin-3-yl]-N′-{4-[4-(4-pyridinyl)-1-piperazinyl]-phenyl}-urea, reference compound] | – | – | 0.59 nM | 1.9 nM
CCCN1C(=O)[C@H](NC(=O)Nc2ccc(N3CCC(N4CCCCC4)CC3)cc2)N=C(c2ccc(C)cc2)c2ccccc21 [compound 3, N-[4-(,4′-bipiperidin)-1′-ylphenyl]-N′-[(3R)-2,3-dihydro-5-(4-methyl-phenyl)-2-oxo-1-propyl-1H-1,4-benzodiazepin-3-yl]-urea, reference compound] | – | – | 13.4 nM | 64.5 nM

Now from value to molecule, other results behind:

Ki [1, 3] | IC50 [2, 4] | Structure (SMILES) | Ki [1, 5] | IC50 [2, 6]
< 20 nM | < 20 nM | O=C(NCCCN1CCC(N2CCCCC2)CC1)c1ccc(S(=O)(=O)Nc2ccccc2Oc2ccc(Br)cc2)cc1 [Example 111, N-(3-[1,4′]Bipiperidinyl-1′-yl-propyl)-4-[2-(4-bromo-phenoxy)-phenylsulfamoyl]-benzamide] | – | –
< 20 nM | < 20 nM | O=C(NCCCN1CCN(c2ccncc2)CC1)c1ccc(S(=O)(=O)Nc2ccccc2Oc2ccc(Br)cc2)cc1 [Example 114, 4-[2-(4-Bromo-phenoxy)-phenylsulfamoyl]-N-[3-(4-pyridin-4-yl-piperazin-1-yl)-propyl]-benzamide] | – | –
< 20 nM | < 20 nM | O=C(NCCCN1CCC(N2CCCCC2)CC1)c1ccc(S(=O)(=O)Nc2ccccc2Oc2ccc(F)cc2Cl)cc1 [Example 116, N-(3-[1,4′]Bipiperidinyl-1′-yl-propyl)-4-[2-(2-chloro-4-fluoro-phenoxy)-phenylsulfamoyl]-benzamide] | – | –
20 to 100 nM | 20 to 100 nM | O=C(N[C@H]1CC[C@H](CCN2CCCC2)CC1)c1ccc(S(=O)(=O)Nc2ccccc2Oc2ccc(F)cc2Cl)cc1 [Example 121, trans-4-[2-(2-Chloro-4-fluoro-phenoxy)-phenylsulfamoyl]-N-[4-(2-pyrrolidin-1-yl-ethyl)-cyclohexyl]-benzamide] | – | –
20 to 100 nM | < 20 nM | O=C(Nc1ccc(N2CCC(N3CCCCC3)CC2)cc1)c1ccc(S(=O)(=O)Nc2ccccc2Oc2ccc(C(F)(F)F)cc2)cc1 [Example 127, N-(4-[1,4′]Bipiperidinyl-1′-yl-phenyl)-4-[2-(4-trifluoromethyl-phenoxy)-phenylsulfamoyl]-benzamide] | – | –
20 to 100 nM | 20 to 100 nM | O=C(NCCCN1CCC(N2CCCCC2)CC1)c1ccc(S(=O)(=O)Nc2ccccc2Oc2ccc(C(F)(F)F)cc2)cc1 [Example 129, N-(3-[1,4′]Bipiperidinyl-1′-yl-propyl)-4-[2-(4-trifluoromethyl-phenoxy)-phenylsulfamoyl]-benzamide] | – | –
< 20 nM | 20 to 100 nM | COc1cc(Cl)ccc1Oc1ccccc1NS(=O)(=O)c1ccc(C(=O)NCCCN2CCC(N3CCCCC3)CC2)cc1 [Example 132, N-(3-[1,4′]Bipiperidinyl-1′-yl-propyl)-4-[2-(4-chloro-2-methoxy-phenoxy)-phenylsulfamoyl]-benzamide] | – | –
20 to 100 nM | 20 to 100 nM | O=C(NCCCCC1CCNCC1)c1ccc(S(=O)(=O)Nc2ccccc2Oc2ccc(F)cc2Cl)cc1 [Example 135, 4-[2-(2-Chloro-4-fluoro-phenoxy)-phenylsulfamoyl]-N-(4-piperidin-4-yl-butyl)-benzamide hydrochloride] | – | –
20 to 100 nM | 20 to 100 nM | O=C(NCCCC1CCNCC1)c1ccc(S(=O)(=O)Nc2ccccc2Oc2ccc(Cl)cc2Cl)cc1 [Example 137, 4-[2-(2,4-Dichloro-phenoxy)-phenylsulfamoyl]-N-(3-piperidin-4-yl-propyl)-benzamide trifluoracetate] | – | –
< 20 nM | < 20 nM | O=C(NCCCN1CCC(N2CCCCC2)CC1)c1ccc(S(=O)(=O)Nc2ccccc2Oc2ccc(Br)cc2Cl)cc1 [Example 157, N-(3-[1,4′]Bipiperidinyl-1′-yl-propyl)-4-[2-(4-bromo-2-chloro-phenoxy)-phenylsulfamoyl]-benzamide] | – | –
< 20 nM | < 20 nM | O=C(Nc1ccc(N2CCC(N3CCCCC3)CC2)cc1)c1ccc(S(=O)(=O)Nc2ccccc2Oc2ccc(Br)cc2Cl)cc1 [Example 169, N-(4-[1,4′]Bipiperidinyl-1′-yl-phenyl)-4-[2-(4-bromo-2-chloro-phenoxy)-phenylsulfamoyl]-benzamide] | – | –
< 20 nM | < 20 nM | O=C(NCCCCC1CCNCC1)c1ccc(S(=O)(=O)Nc2ccccc2Oc2ccc(Cl)cc2Cl)cc1 [Example 170, 4-[2-(2,4-Dichloro-phenoxy)-phenylsulfamoyl]-N-(4-piperidin-4-yl-butyl)-benzamide hydrochloride] | – | –
